Reference: BindingDB's records for PubMed 29133594 (University of North Carolina at Chapel Hill)

Assays:
[1] = target: RAC-alpha serine/threonine-protein kinase (Homo sapiens, UniProt P31749); experiment: Inhibition of AKT1 (unknown origin)
Aurora kinase A = target: T1, Aurora kinase A (Homo sapiens, UniProt O14965); experiment: Inhibition of AURKA (unknown origin)
T1 sequence (O14965 whole entry): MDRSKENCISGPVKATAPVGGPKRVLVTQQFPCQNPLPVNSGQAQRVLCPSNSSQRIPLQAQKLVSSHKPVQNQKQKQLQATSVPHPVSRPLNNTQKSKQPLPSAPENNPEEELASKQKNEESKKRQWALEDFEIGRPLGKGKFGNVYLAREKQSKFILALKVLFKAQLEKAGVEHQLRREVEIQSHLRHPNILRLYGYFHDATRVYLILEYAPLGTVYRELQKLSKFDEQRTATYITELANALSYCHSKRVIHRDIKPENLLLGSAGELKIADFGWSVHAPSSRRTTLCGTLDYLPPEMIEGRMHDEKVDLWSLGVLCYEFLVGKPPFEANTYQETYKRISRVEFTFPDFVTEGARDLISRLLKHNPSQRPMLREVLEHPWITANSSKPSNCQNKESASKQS

Aurora kinase B = Aurora kinase B (Homo sapiens, UniProt Q96GD4); experiment: Inhibition of AURKB (unknown origin)
Sequence of Aurora kinase B (Q96GD4 whole entry): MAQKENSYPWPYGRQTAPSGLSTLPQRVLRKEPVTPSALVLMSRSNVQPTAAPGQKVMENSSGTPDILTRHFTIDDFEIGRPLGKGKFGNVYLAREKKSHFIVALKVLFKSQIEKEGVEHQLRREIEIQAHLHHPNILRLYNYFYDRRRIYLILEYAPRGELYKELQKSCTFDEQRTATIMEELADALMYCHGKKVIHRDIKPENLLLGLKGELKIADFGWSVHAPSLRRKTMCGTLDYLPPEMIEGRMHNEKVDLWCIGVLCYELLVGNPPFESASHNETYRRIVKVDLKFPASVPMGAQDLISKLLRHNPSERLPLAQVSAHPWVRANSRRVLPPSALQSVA

[2] = target: RAF proto-oncogene serine/threonine-protein kinase (Homo sapiens, UniProt P04049); experiment: Inhibition of CRAF (unknown origin)
Sequence of RAF proto-oncogene serine/threonine-protein kinase (P04049 whole entry): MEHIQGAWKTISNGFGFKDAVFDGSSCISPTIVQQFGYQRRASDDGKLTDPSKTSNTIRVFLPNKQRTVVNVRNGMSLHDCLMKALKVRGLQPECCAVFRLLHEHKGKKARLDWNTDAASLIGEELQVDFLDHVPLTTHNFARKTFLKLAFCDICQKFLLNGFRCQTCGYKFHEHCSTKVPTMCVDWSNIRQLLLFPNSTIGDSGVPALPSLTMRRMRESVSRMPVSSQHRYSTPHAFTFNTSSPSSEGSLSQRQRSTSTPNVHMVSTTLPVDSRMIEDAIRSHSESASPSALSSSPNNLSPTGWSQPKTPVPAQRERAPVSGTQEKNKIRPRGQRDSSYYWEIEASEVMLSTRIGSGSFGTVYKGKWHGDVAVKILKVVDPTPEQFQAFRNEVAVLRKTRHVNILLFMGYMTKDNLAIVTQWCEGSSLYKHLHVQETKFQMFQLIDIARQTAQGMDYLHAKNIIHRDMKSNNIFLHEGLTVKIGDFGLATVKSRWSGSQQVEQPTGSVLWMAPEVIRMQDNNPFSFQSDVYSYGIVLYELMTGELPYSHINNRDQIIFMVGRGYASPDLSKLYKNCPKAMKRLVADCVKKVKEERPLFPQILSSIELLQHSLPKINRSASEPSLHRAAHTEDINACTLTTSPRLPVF

[3] = target: Mitogen-activated protein kinase 3 (Homo sapiens, UniProt P27361); experiment: Inhibition of ERK1 (unknown origin)
Sequence of Mitogen-activated protein kinase 3 (P27361 whole entry): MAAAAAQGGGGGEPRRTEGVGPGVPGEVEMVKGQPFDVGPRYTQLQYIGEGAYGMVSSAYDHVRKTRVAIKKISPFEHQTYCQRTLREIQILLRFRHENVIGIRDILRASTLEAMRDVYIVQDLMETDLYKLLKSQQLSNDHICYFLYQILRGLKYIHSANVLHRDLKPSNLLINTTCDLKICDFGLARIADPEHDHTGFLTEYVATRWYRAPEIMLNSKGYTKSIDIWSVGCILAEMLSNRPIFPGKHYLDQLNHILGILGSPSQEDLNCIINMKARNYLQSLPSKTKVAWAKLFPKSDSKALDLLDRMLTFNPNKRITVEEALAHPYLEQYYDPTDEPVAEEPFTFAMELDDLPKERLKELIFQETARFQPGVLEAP

[4] = target: Serine/threonine-protein kinase PLK1 (Homo sapiens, UniProt P53350); experiment: Inhibition of PLK1 (unknown origin)
Sequence of Serine/threonine-protein kinase PLK1 (P53350 whole entry): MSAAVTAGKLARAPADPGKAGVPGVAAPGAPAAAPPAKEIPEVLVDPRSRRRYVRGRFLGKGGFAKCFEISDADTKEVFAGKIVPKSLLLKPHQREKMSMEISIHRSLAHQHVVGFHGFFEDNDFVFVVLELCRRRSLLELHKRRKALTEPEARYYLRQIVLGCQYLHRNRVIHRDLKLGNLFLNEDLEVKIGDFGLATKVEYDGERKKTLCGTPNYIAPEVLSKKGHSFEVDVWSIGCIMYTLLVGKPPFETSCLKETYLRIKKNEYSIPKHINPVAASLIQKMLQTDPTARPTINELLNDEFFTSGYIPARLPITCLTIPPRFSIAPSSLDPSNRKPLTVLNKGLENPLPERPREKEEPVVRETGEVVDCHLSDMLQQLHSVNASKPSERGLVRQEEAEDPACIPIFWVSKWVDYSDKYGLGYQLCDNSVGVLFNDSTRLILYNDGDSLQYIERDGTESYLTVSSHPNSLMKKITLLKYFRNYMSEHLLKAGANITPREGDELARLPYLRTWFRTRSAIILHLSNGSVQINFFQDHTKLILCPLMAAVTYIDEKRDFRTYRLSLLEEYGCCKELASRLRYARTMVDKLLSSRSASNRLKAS

[5] = target: Serine/threonine-protein kinase PLK3 (Homo sapiens, UniProt Q9H4B4); experiment: Inhibition of PLK3 (unknown origin)
Sequence of Serine/threonine-protein kinase PLK3 (Q9H4B4 whole entry): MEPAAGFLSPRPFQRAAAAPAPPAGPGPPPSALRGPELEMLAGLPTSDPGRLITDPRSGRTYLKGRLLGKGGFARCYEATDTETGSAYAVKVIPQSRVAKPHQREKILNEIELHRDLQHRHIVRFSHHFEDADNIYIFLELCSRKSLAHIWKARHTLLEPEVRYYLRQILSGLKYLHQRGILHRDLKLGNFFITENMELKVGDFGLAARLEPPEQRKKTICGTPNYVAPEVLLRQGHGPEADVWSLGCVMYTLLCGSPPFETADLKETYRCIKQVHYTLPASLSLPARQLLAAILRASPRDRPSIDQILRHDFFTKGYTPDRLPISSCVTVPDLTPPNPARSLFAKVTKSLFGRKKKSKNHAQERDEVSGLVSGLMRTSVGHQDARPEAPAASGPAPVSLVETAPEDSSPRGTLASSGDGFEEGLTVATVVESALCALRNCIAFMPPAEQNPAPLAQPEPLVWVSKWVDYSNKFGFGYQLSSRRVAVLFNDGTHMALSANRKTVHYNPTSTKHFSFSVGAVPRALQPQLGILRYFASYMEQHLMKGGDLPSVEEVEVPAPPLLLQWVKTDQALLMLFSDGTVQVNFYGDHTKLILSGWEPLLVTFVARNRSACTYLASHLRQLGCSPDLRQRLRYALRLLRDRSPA

Measured: IC50

Sequence of RAC-alpha serine/threonine-protein kinase (P31749 whole entry): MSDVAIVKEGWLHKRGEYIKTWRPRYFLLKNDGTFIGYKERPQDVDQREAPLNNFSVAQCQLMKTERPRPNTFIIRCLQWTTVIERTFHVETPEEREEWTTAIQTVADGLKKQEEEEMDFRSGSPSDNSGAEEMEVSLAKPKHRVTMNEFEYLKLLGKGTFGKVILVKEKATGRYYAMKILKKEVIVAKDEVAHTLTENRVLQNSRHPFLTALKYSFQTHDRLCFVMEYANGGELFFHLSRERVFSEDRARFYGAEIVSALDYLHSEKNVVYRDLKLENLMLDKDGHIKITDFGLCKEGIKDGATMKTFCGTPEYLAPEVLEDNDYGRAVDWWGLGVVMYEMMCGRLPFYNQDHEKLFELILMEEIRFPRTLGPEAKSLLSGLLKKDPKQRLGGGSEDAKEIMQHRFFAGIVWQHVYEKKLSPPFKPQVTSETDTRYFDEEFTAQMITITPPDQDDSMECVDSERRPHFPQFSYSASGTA

CCN1CCN(Cc2ccc(Nc3ncc(F)c(-c4cc(F)c5nc(C)n(C(C)C)c5c4)n3)nc2)CC1 [Abemaciclib]
> 20 µM: all assays above
